What was measured:
Assay in all cases: relative viability (nuclei count vs DMSO), 5 days (fraction); higher = more cells survive
Dasatinib + Linsitinib = compound: Cc1nc(Nc2ncc(C(=O)Nc3c(C)cccc3Cl)s2)cc(N2CCN(CCO)CC2)n1 [Dasatinib] + C[C@]1(O)C[C@@H](c2nc(-c3ccc4ccc(-c5ccccc5)nc4c3)c3c(N)nccn32)C1 [Linsitinib] (partner 1 µM)
Outline: (§1)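 Lung cancer cell lines, seeded in 1536-well plates, were treated the following day by pin tool with a single drug or with five library-drug doses (not always all listed) in √10 steps on top of a fixed anchor-drug dose. Cells were fixed and nuclei stained in one step after 5 days, and nuclei were counted. Relative viability is the nuclei count for treated wells divided by that for vehicle wells, reported as medians of duplicate plates.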

XMD13-2 + Pictilisib = compound: C1CC1C(=O)NC2=NNC3=C2C=CC(=C3)C4=CC(=CC=C4)C(=O)NC5CC5 [XMD13-2] + CS(=O)(=O)N1CCN(Cc2cc3nc(-c4cccc5[nH]ncc45)nc(N4CCOCC4)c3s2)CC1 [Pictilisib] (partner 1 µM)
Outline: as §1

Dasatinib + Palbociclib = compound: Cc1nc(Nc2ncc(C(=O)Nc3c(C)cccc3Cl)s2)cc(N2CCN(CCO)CC2)n1 [Dasatinib] + CC(=O)c1c(C)c2cnc(Nc3ccc(N4CCNCC4)cn3)nc2n(C2CCCC2)c1=O [Palbociclib] (partner 0.5 µM)
Outline: as §1

ALW-II-49-7 + Pemetrexed = compound: Cc1ccc(C(=O)Nc2cccc(C(F)(F)F)c2)cc1Nc1cncc(C(N)=O)c1 [ALW-II-49-7] + Nc1nc2[nH]cc(CCc3ccc(C(=O)N[C@@H](CCC(=O)O)C(=O)O)cc3)c2c(=O)[nH]1 [Pemetrexed] (partner 0.2 µM)
Outline: as §1

| Cell Line | relative viability (Dasatinib + Linsitinib; first compound 0.005 µM) | relative viability (Dasatinib + Linsitinib; first compound 0.01581 µM) | relative viability (Dasatinib + Linsitinib; first compound 0.05 µM) | relative viability (Dasatinib + Linsitinib; first compound 0.1581 µM) | relative viability (Dasatinib + Linsitinib; first compound 0.5 µM) | relative viability (XMD13-2 + Pictilisib; first compound 0.05 µM) | relative viability (XMD13-2 + Pictilisib; first compound 0.1581 µM) | relative viability (XMD13-2 + Pictilisib; first compound 0.5 µM) | relative viability (XMD13-2 + Pictilisib; first compound 1.581 µM) | relative viability (XMD13-2 + Pictilisib; first compound 5 µM) | relative viability (Dasatinib + Palbociclib; first compound 0.005 µM) | relative viability (Dasatinib + Palbociclib; first compound 0.01581 µM) | relative viability (Dasatinib + Palbociclib; first compound 0.05 µM) | relative viability (Dasatinib + Palbociclib; first compound 0.1581 µM) | relative viability (Dasatinib + Palbociclib; first compound 0.5 µM) | relative viability (ALW-II-49-7 + Pemetrexed; first compound 0.08 µM) | relative viability (ALW-II-49-7 + Pemetrexed; first compound 0.253 µM) | relative viability (ALW-II-49-7 + Pemetrexed; first compound 0.8 µM) | relative viability (ALW-II-49-7 + Pemetrexed; first compound 2.53 µM) | relative viability (ALW-II-49-7 + Pemetrexed; first compound 8 µM) |
| --- | --- | --- | --- | --- | --- | --- | --- | --- | --- | --- | --- | --- | --- | --- | --- | --- | --- | --- | --- | --- |
| NCI-H1975 | 0.86 | 0.713 | 0.851 | 0.286 | 0.243 | 0.319 | 0.3 | 0.333 | 0.322 | 0.325 | 0.519 | 0.527 | 0.482 | 0.341 | 0.134 | 0.312 | 0.306 | 0.266 | 0.296 | 0.244 |
| NCI-H2085 | 0.773 | 0.789 | 0.644 | 0.232 | 0.172 | 0.828 | 0.445 | 0.444 | 0.444 | 0.481 | 0.495 | 0.485 | 0.395 | 0.191 | 0.206 | 0.867 | 1.01 | 0.913 | 1.01 | 0.854 |
| NCI-H3122 | 1.03 | 1.05 | 1.03 | 0.762 | 0.815 | 0.655 | 0.598 | 0.585 | 0.662 | 0.505 | 0.201 | 0.214 | 0.207 | 0.239 | 0.131 | 0.201 | 0.174 | 0.207 | 0.216 | 0.186 |
| NCI-H1651 | 0.894 | 0.746 | 0.551 | 0.474 | 0.498 | 0.819 | 0.477 | 0.661 | 0.64 | 0.548 | 0.523 | 0.494 | 0.514 | 0.4 | 0.36 | 0.5 | 0.631 | 0.615 | 0.574 | 0.441 |
| NCI-H441 | 0.566 | 0.523 | 0.491 | 0.311 | 0.176 | 0.445 | 0.505 | 0.539 | 0.37 | 0.411 | 0.265 | 0.191 | 0.2 | 0.14 | 0.115 | 0.27 | 0.25 | 0.26 | 0.234 | 0.211 |
| NCI-H2126 | 0.636 | 0.582 | 0.589 | 0.422 | 0.264 | 0.508 | 0.448 | 0.503 | 0.518 | 0.502 | 0.362 | 0.347 | 0.309 | 0.298 | 0.285 | 0.733 | 0.708 | 0.654 | 0.661 | 0.755 |
| RERF-LC-KJ | 0.896 | 0.845 | 0.862 | 0.67 | 0.634 | 0.57 | 0.558 | 0.435 | 0.571 | 0.5 | 1.08 | 0.994 | 1.11 | 0.782 | 0.81 | 0.475 | 0.518 | 0.472 | 0.439 | 0.478 |
| NCI-H1666 | 0.806 | 0.595 | 0.788 | 0.464 | 0.288 | 0.566 | 0.479 | 0.59 | 0.349 | 0.492 | 0.661 | 0.594 | 0.637 | 0.656 | 0.632 | 0.783 | 0.944 | 0.831 | 0.847 | 0.785 |
| PC-14 | 1 | 0.968 | 0.93 | 0.546 | 0.281 | 0.995 | 0.684 | 0.67 | 0.608 | 0.766 | 0.561 | 0.502 | 0.427 | 0.221 | 0.0393 | 0.15 | 0.165 | 0.13 | 0.138 | 0.113 |
| NCI-H1915 | 1.11 | 1.03 | 0.921 | 0.488 | 0.288 | 0.981 | 0.884 | 1.07 | 0.9 | 0.919 | 0.482 | 0.438 | 0.403 | 0.195 | 0.163 | 0.451 | 0.546 | 0.49 | 0.457 | 0.375 |
| NCI-H661 | 0.43 | 0.329 | 0.31 | 0.236 | 0.215 | 0.469 | 0.529 | 0.421 | 0.344 | 0.383 | 0.429 | 0.412 | 0.386 | 0.345 | 0.282 | 0.974 | 0.968 | 0.944 | 0.929 | 0.959 |
| SK-MES-1 | 1.11 | 1.08 | 0.937 | 0.412 | 0.219 | 0.408 | 0.422 | 0.333 | 0.365 | 0.349 | 0.353 | 0.358 | 0.269 | 0.187 | 0.154 | 0.888 | 0.964 | 0.916 | 0.867 | 0.686 |
| NCI-H1944 | 1.15 | 1.34 | 0.787 | 0.419 | 0.276 | 0.352 | 0.345 | 0.357 | 0.373 | 0.333 | 0.315 | 0.242 | 0.249 | 0.119 | 0.111 | 0.6 | 0.597 | 0.611 | 0.582 | 0.537 |
| HCC-78 | 0.376 | 0.447 | 0.408 | 0.363 | 0.24 | 0.227 | 0.281 | 0.195 | 0.223 | 0.188 | 0.459 | 0.429 | 0.443 | 0.382 | 0.239 | 0.888 | 0.846 | 0.91 | 0.884 | 0.891 |
| PC-3 [JPC-3] | 0.976 | 0.97 | 1.07 | 1.06 | 0.633 | 0.746 | 0.733 | 0.777 | 0.747 | 0.724 | 0.593 | 0.534 | 0.607 | 0.568 | 0.465 | 0.976 | 0.909 | 0.843 | 1.27 | 0.947 |
| LCLC-103H | 1.07 | 0.961 | 0.88 | 0.568 | 0.388 | 0.684 | 0.714 | 0.585 | 0.657 | 0.622 | 0.506 | 0.47 | 0.452 | 0.453 | 0.404 | 0.533 | 0.502 | 0.477 | 0.462 | 0.419 |

From the supplement of paper PMC10307832
